In US10806717B2, “Methods and compositions for improving cognitive function” (The Johns Hopkins University, priority 2013, dated 2020):
Entries after “also recorded” stand apart in the source; their conditions may differ.

Tests used:
[1] = biological target: synaptic vesicle protein 2A (SV2A) (Homo sapiens, UniProt Q7L0J3); settings: specific site in the CNS; cited from earlier work
aMCI subjects [2] = assay: fMRI activity of medial temporal lobe subregions during memory judgments; type: in vivo, human
aged-impaired (AI) rats = assay: Radial Arm Maze task with one-hour delay, levetiracetam and/or valproate; type: in vivo, rat; settings: for effective in reducing the number of errors: levetiracetam on its own
aMCI subjects [3] = tested on: aMCI subjects; set-up: species or system human; settings: in vivo
[4] = cited from earlier work
[5] = tested on: Age-Impaired (AI) Long-Evans rats; assay: Morris Water Maze retention trial, levetiracetam i.p.; type: in vivo, rat
Description: The MWM apparatus consists of a large, circular pool (diameter 1.53 m; height, 0.58 m) filled with water (27° C.) that is made opaque through the addition of non-toxic pigment or some other substance. In the typical “hidden platform” version of the test, rats are trained to find a camouflaged white escape platform (height, 34.5 cm) that is positioned in the center of one quadrant of the maze about 1.0 cm below the water surface. This platform can be retracted to the bottom of the tank or raised to its normal position from outside the maze during behavioral testing. The location of the platform remains constant from trial to trial. Because there are no local cues that mark the position of the platform, the rat's ability to locate it efficiently from any starting position at the perimeter of the pool depends on using information surrounding the maze. The maze is surrounded by black curtains to which white patterns are affixed to provide a configuration of spatial cues. A second platform (height 37.5 cm), with its surface painted black is elevated 2 cm above the water surface during cue training to control for factors unrelated to cognition. The behavior of a rat in the pool is recorded by a camera that is suspended 2.5 m above the center of the pool. The camera is connected to a video tracking system (HVS Image Advanced Tracker VP200) and a PC computer running HVS software developed by Richard Baker of HVS Image, Hampton, UK. Six Age-Impaired (AI) Long-Evans rats (as characterized above) were tested for their memory of new spatial information in the MWM, under different drug/control treatment conditions (vehicle control and two different dosage levels of levetiracetam). The MWM protocol was substantially the same as the one described in Example 1. Specifically for this study, a retention trial was performed after the training trials, as described below. AI rats were given six training trials per training day with a 60-sec inter-trial interval between each training trial for two consecutive days. […]

[6] = tested on: reelin in Entorhinal Cortex (EC2); assay: In situ hybridization of reelin mRNA after chronic levetiracetam; type: in vivo, rat; settings: levetiracetam 10 mg/kg/day, osmotic minipumps, four weeks (28 days), aged-impaired rats; vs AI-VEH p=0.033
somatostatin in DG hilus = assay: Immunohistochemistry of SOM-immunoreactive hilar neurons after chronic levetiracetam; type: in vivo, rat; settings: levetiracetam 10 mg/kg/day, osmotic minipumps, four weeks, aged-impaired rats; AI-LEV vs AI-VEH p<0.01
[7] = levetiracetam 10 mg/kg/day i.p.

Chain of synaptic vesicle protein 2A (SV2A) (Q7L0J3 whole entry, species assumed): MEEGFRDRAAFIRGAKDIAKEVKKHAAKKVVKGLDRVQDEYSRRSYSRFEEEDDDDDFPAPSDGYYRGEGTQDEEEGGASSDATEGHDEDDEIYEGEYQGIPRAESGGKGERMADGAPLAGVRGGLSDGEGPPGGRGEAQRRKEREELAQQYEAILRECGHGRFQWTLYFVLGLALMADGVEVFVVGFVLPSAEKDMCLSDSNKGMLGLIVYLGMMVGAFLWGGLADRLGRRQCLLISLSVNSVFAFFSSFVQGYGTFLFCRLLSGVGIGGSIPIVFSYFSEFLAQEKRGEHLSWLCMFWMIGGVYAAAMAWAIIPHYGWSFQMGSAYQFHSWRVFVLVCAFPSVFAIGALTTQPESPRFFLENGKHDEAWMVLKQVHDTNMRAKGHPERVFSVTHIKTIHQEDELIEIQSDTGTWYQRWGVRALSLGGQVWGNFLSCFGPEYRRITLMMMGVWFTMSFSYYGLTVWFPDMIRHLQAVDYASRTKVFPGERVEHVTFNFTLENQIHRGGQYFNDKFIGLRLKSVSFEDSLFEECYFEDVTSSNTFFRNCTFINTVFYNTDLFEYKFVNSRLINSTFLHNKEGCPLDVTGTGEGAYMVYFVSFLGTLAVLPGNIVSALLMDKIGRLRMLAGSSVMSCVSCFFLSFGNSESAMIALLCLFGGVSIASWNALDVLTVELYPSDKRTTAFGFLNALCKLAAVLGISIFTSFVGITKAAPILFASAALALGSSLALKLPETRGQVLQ

Compound: CC[C@@H](C(N)=O)N1CCCC1=O [levetiracetam, (2S)-2-(2-oxopyrrolidin-1-yl)butanamide]
- binding to SV2A [1]: binds
- DG/CA3 hyperactivity during memory judgments (aMCI subjects [2]; levetiracetam 62.5 mg BID for two weeks, N=20): does not significantly reduce
- entorhinal cortex (EC) activity during memory judgments (aMCI subjects [2]; levetiracetam 125 mg twice a day for two weeks vs placebo): increases EC activity
- DG/CA3 activity during lure stimuli correctly identified as similar (aMCI subjects [2]; levetiracetam 125 mg twice a day for two weeks vs placebo, p=0.037): reduces DG/CA3 hyper-activity
- DG/CA3 hyperactivity during memory judgments (aMCI subjects [2]; levetiracetam 250 mg BID for two weeks, N=17): does not significantly reduce
- effective doses in the animal model (aged-impaired (AI) rats; AI rats, given acutely): 5 to 10 mg/kg
- performance of AI rats in the radial maze task (aged-impaired (AI) rats; levetiracetam 20 mg/kg): fails to improve the performance
- effective in reducing the number of errors (aged-impaired (AI) rats; 1.25 mg/kg or 2.5 mg/kg i.p.): not
- effective in reducing the number of errors (aged-impaired (AI) rats; 5-10 mg/kg i.p.): effective
- performance in Buschke Selective Reminding Test-Delayed Recall, Benton Visual Retention Test, Verbal Paired Associates Test-Recognition and -Delayed Recall (aMCI subjects [3]): fail to rescue performance
- absorption ([4]; after oral administration): rapidly and almost completely absorbed
- Plasma half-life expected in elderly ([4]; elderly, due to decreased renal function): 9 to 10 h
- time of peak plasma concentrations ([4]; following oral administration): about 1 hour
- Plasma half-life ([4]; in vivo): approximately 7±1 hour
- time to steady state ([4]; multiple twice-daily dosing): 2 days
- effect of food on bioavailability ([4]; oral): not affected by food
- memory performance (time in target quadrant) compared to vehicle ([5]; levetiracetam 5 mg/kg/day i.p.): did not significantly improve
- memory performance (time in target quadrant) compared to vehicle [5, 7]: significantly improved memory
- time spent in the target annulus [5, 7]: effectivness of the 10 mg/kg/day levetiracetam treatment was also seen
- reelin (mRNA expression) in entorhinal cortex [6]: restores the levels of reelin; also recorded: significantly increased the expression of reelin
- levels of somatostatin (SOM-immunoreactive hilar neurons) in DG hilus (somatostatin in DG hilus): restores the levels of somatostatin; also recorded: restores sematostatin
